Test results taken from patent publication US20240374555A1, “Mast Cell Stabilizer with Sodium Cromoglycate-based Inhibitor for Preventing Lipedema Progression” (MAGI'S LAB SRL, priority 2023, published 2024).

Test system: histamine and its metabolites in the tissue of people with lipedema
Assay: Metabolomic analysis (IM-MS) of subcutaneous adipose tissue biopsies from lipedema patients treated with sodium cromoglycate
Assay type: in vivo, human
Conditions: for Histamine levels in tissue samples after treatment (in words): three lipedema patients treated for two weeks
Experimental: This experiment study involved patients who were diagnosed with lipedema. The study began with collection of a sample from each subject in the study, and three patients received a treatment regimen consisting of twice daily oral doses of sodium cromoglycate (500 mg) for 15 days, as well as a topical cream containing 4% sodium cromoglycate. The effects of this treatment on the patients' symptoms and mast cell activation were evaluated as part of the study.
Thereafter, metabolomic analysis was performed by mass spectrometry. Specifically, the ion-mobility mass spectrometry (IM-MS) technique combined ion mobility with mass spectrometry, allowing different compounds to be characterized together with a specific m/z ratio. SACI-CIMS was used as ionization technique. Data were acquired through the SANIST platform. Values under the Limit of Quantification (LoQ=1 pg/mg) were considered as 0 pg/mg.
Thereafter, a target histological and metabolomic examination was performed. Specifically, biopsies of subcutaneous adipose tissue were taken from a total of six patients with lipedema and four healthy individuals.

[1] = lipedema tissue of patients treated with sodium cromoglycate (n = 3), 500 mg oral twice daily for 15 days plus 4% topical cream
[2] = lipedema tissue of patients treated with sodium cromoglycate (n = 3), 500 mg oral twice daily for 15 days plus 4% topical cream, values under LoQ (1 pg/mg) given as 0

O=C(O)c1cc(=O)c2c(OCC(O)COc3cccc4oc(C(=O)O)cc(=O)c34)cccc2o1 [sodium cromoglycate, Sodium cromoglycate]
1-Methylhystamine tissue level [1]: 13.67 ± 10.02 pg/mg | Histidine tissue level [1]: 20.67 ± 17.00 pg/mg | Histamine tissue level [2]: 0 pg/mg | Imidazole Acetaldehyde tissue level [2]: 0 pg/mg | Histamine levels in tissue samples after treatment (in words): effectively reduce histamine levels | Histamine levels in tissue samples after treatment (in words) (listed as disodium cromoglycate): normal levels of histamine
